Data on 3 compounds can be found in patent publication US9491960B2, “Sweetener” (Tate & Lyle Ingredients Americas LLC, priority 2013, dated 2016).

Like-named read-outs stand apart in the source and are kept apart here. Marks after values point to notes of the source that are not given here.

For experiment [1] the following is noted: cited from earlier work.
The nature of experiment [2]: Round table sensory evaluation by test panelists: sucrose equivalent value (SEV) against sucrose reference samples. In kind it is in vivo. The following applies: for Sweetness (mean SEV, Duncan grouping) / Sweetness (mean SEV, two-way ANOVA, level of significance Duncan): 10 SEV solutions in neutral pH water; for Sweetness (mean SEV, Duncan grouping): level of significance for the grouping (Duncan): 5%; for Sweetness (mean SEV, two-way ANOVA, level of significance Duncan): superscripts = Duncan level of significance; for Mean 1 (mean sucrose equivalent value, SEV) / Median 1 (median sucrose equivalent value, SEV): equal sweet 10 SEV concentrations in neutral pH water, references 4%-14% sucrose, room temperature. The protocol:
Round table evaluations were performed with test panelists. Equal sweet 10 SEV concentrations in neutral pH water were made for allulose, fructose and sucralose, as well as a composition comprising allulose, fructose and sucralose. The components of the test compositions are described in the below tables. The mixed compositions were calculated using the Beidler mixture equation for the sweeteners. The Beidler mixture equation for sweeteners is as follows: […]
The concentration of each component in the mixture in ppm is divided by SEV (c/R) and is plotted against concentration, c. The slope of the linear regression is the maximum SEV (Rmax). The y-intercept of the linear regression multiplied by Rmax is the half-maximal sweetness concentration, 1/K. Rmax and 1/K are the two parameters used in the Beidler equation.
The equal-molar mixture was tested against reference samples for the panelists to determine SEV values. […] The test samples were served in 2 ounce (approximately 60 ml) soufflé cups coded with 3-digit codes at room temperature. A two minute wait period between samples was enforced. Water and unsalted crackers was available for the panelists to clear their palates before and during testing. EyeQuestion, software distributed by Logic8 BV of Elst, The Netherlands, was used for ballot development and recording of results. Results were collected in EyeQuestion for calculating approximate SEV level of each test sample. The test products analyzed in this experiment are described below in Table 1.

As to `O=C(CO)C(O)C(O)C(O)CO` (centres unmarked) [Allulose, allulose], the “Sweetness relative to sucrose” value in experiment [1] (% of the sweetness of sucrose) was “around 70%”. Besides, in experiment [2], the “Sweetness (mean SEV, Duncan grouping)” value is on record as 10.14^b-c; the “Sweetness (mean SEV, two-way ANOVA, level of significance Duncan)” value was determined as 10.14; the “Mean 1 (mean sucrose equivalent value, SEV)” value was 10.14; the “Median 1 (median sucrose equivalent value, SEV)” value turned out to be 10.

Regarding `O=C(CO)[C@@H](O)[C@H](O)[C@H](O)CO` [Fructose, fructose], in experiment [2], the “Sweetness (mean SEV, Duncan grouping)” value is on record as 10.14^b-c; the “Sweetness (mean SEV, two-way ANOVA, level of significance Duncan)” value worked out at 10.14; the “Mean 1 (mean sucrose equivalent value, SEV)” value was 10.14; the “Median 1 (median sucrose equivalent value, SEV)” value came out at 10.

Consider sucralose, for which, in experiment [1] (times as sweet as sucrose), the “Sweetness relative to sucrose” value is on record as “approximately 600 times”. Besides, in experiment [2], the “Sweetness (mean SEV, Duncan grouping)” value was 9.29^c; the “Sweetness (mean SEV, two-way ANOVA, level of significance Duncan)” value is 9.29; the “Mean 1 (mean sucrose equivalent value, SEV)” value turned out to be 9.286; the “Median 1 (median sucrose equivalent value, SEV)” value worked out at 10.
